Consider two compounds from paper PMC10714390, “Quinoline Compounds Targeting the c-Ring of ATP Synthase Inhibit Drug-Resistant Pseudomonas aeruginosa” (ACS Infectious Diseases, 2023).

The structures appear in SMILES notation. Where “and” joins values, the source holds several entries; their conditions need not be identical. Equal values may be shown once.

Assay [1] relates to drug-resistant P. aeruginosa BAA 2109. As to the kind of experiment: Antimicrobial susceptibility (broth microdilution), BAA 2109. It counts as cell-based, Pseudomonas aeruginosa. The conditions noted are these: for MIC: Pseudomonas aeruginosa, BAA2109, read-out: antibacterial activity (MIC) BAA 2109; for antibacterial activity in words, BAA 2109: summary of Table 1. How it is done: (§1) The following are general steps, unless otherwise noted. All steps were completed using aseptic techniques. All media and glassware were sterilized via an autoclave at 121 °C for 60 min. All agitation occurred at 160 rpm in a temperature-controlled console shaker (Excella E25) at 37 °C. Full-strength tryptic soy broth (TSB) was made by dissolving 30 g of BD Bacto TSB powder in 1 L of deionized water. Purchased and acquired bacterial strains used were E. coli (ATCC 25922), P. aeruginosa (ATCC 9027), drug-resistant P. aeruginosa from ATCC Panel MP-23 (BAA 2108, BAA 2109, BAA 2110), and P. aeruginosa efflux knockout GKCW120 (PΔ6)[6] provided by Zgurskaya and co-workers at the University of Oklahoma.
(§2) Susceptibility testing was performed in biological triplicate using the broth microdilution method as outlined by the Clinical and Laboratory Standards Institute. […] Briefly, to each well, 1 μL of compound in DMSO, 89 μL of TSB, and 10 μL of bacterial inoculum, grown from a single colony in 10 mL of TSB for 4–6 h, were added. After incubation for 12–15 h at 37 °C, absorbance at 590 nm was read on a Biotek Synergy HTX Multimode plate reader. Data were processed by background subtracting the media absorbance and then normalizing the data to full bacterial growth with the vehicle only. MIC is defined as the lowest concentration of antibiotic or antibiotic/adjuvant combination that achieves ≥85% growth inhibition, which corresponds to no visible growth.
(In general: Dilution methods test growth across graded concentrations, often in twofold steps.)

The subject of assay [2] is P. aeruginosa (ATCC 9027). As to the kind of experiment: Antimicrobial susceptibility (broth microdilution), PA 9027. It counts as cell-based, Pseudomonas aeruginosa. The note with it: for MIC: Pseudomonas aeruginosa, ATCC9027, read-out: antibacterial activity (MIC) PA 9027; for antibacterial activity in words, PA 9027: summary of Table 1. The method, then:
as §1, §2
(§3) Initial antibacterial activity screen of compounds 4, 5, and S1-S6
(§4) Compounds 4, 5, and S1-S6 were screened for initial antibiotic activity against a susceptible laboratory strain of EC (designated EC 25922), and non-virulent, biofilm forming strain of PA (designated PA 9027), and PD6 (efflux knockout strain6) at 128 µg/mL in DMSO. Sterilization and Antimicrobial Susceptibility Assay procedures utilized were the same as described in the methods.
(§5) Table S1. Antibacterial activity screening results for compounds 4, 5, and S1-S6 at 128 µg/mL
(§6) Table S1. Antibacterial activity screening results for compounds 4, 5, and S1-S6 at 128 µg/mL.

In assay [3] the test system is PA electron transport chain. As to the kind of experiment: Electron transport activity (NADH-driven H+ pumping, ACMA quenching), PA vesicles. The note with it: for inhibition of PA ETC-driven H+ pumping, in words: 0-64 µg/mL, Figure S2; for Inhibition of the PA electron transport chain IC50: PA vesicles. It counts as biochemical, Pseudomonas aeruginosa. How it is done:
Determination of electron transport activity. In an opaque black 96-well plate, inverted membrane
vesicles from PA or E. coli DK8 pASH20 were added to HMK buffer containing 0.3 µg/mL 9-amino-6-chloro-
2-methoxyacridine (ACMA) and 0-64 µg/mL test compound in DMSO. After measurement of baseline
ACMA fluorescence for 60 s, redox-driven H+ pumping was initiated by addition of NADH to 0.8 mM, and
fluorescence quenching was monitored for 120 s before addition of nigericin to 0.5 µg/mL. Relative
activity is reported as the minimum fluorescence value normalized to the maximum fluorescence value
following addition of nigericin. […]

The subject of assay [4] is P. aeruginosa efflux knockout GKCW120 (PΔ6). As to the kind of experiment: Antimicrobial susceptibility (broth microdilution), PΔ6 efflux knockout. It counts as cell-based, Pseudomonas aeruginosa. The conditions noted are these: for Antibacterial activity screening result, P∆6: at 128 µg/mL in DMSO; for antibacterial activity (MIC) PΔ6: n = 3, >85% reduction in growth at OD 590 nm; for antibacterial activity in words, PΔ6: summary of Table 1. How it is done: as §1, §2, §3, §4, §5, §6

A further assay concerns E. coli (ATCC 25922). As to the kind of experiment: Antimicrobial susceptibility (broth microdilution), EC 25922. It counts as cell-based, Escherichia coli. The conditions noted are these: for MIC: Escherichia coli, ATCC25922, read-out: antibacterial activity (MIC) EC 25922; for antibacterial activity in words, EC 25922: summary of Table 1. The method, then:
as §1, §2, §3, §4, §5, §6

The target in assay [5] is T1, PA ATP synthase expressed in E. coli DK8/pASH20 (Pseudomonas aeruginosa, UniProt Q9HT15).
T1 construct: expressed in transfected cells; host or cells: E. coli K-12 DK8 (lacks its own ATP synthase) transformed with pASH20 (pBR322 derivative)
As to the kind of experiment: NADH-driven ATP synthesis inhibition, DK8/pASH20 membrane vesicles. It counts as biochemical. The note with it: for IC50: ATP synthesis IC50, DK8/pASH20 vesicles, wild-type PA ATP synthase in E. coli DK8, NADH-driven, end point luminescence assay; for Hill coefficient of dose response fit, DK8/pASH20 vesicles: inhibition of ATP synthesis activity. How it is done: P. aeruginosa (ATCC 9027) was streaked onto a 10% TSB agar plate and incubated at room temperature for 72 h. A single colony was resuspended in 100 μL of H2O, and 5 μL was used as the DNA template for PCR with Q5 polymerase (NEB) and […] each of forward and reverse primers. Primers were complementary to regions flanking the atp operon and included sequences for HindIII and NdeI restriction sites (see the SI for primer sequences). The resulting 6.9 kbp DNA fragment was digested with HindIII and NdeI and ligated into digested vector pBR322 (New England Biolabs). The resultant pASH20(-i) plasmid contains a partial atpI gene. To complete the atpI gene, the HindII-XhoI fragment of pASH20(-i) was replaced with a synthetic fragment with a complete atpI (Twist Bioscience) to yield pASH20. The sequence of the entire operon was verified by Sanger DNA sequencing through the ligation sites. Subunit c mutations were introduced by exchanging the XhoI-BamHI fragment containing atpE with a synthetic fragment containing mutated atpE (Twist Bioscience).
Vesicles were prepared from P. aeruginosa and transformed E. coli cells as previously described.[22] Briefly, cells were grown in LB liquid medium at 37 °C with shaking and harvested by centrifugation after 7 h of growth. Cultures of transformant E. coli included 100 μg/mL ampicillin. Cells were disrupted in TMG buffer (50 mM Tris-HCl, MgCl2, 10% (v/v) glycerol, pH 7.5) using an Avestin B15 homogenizer at 19,000 psi. After unbroken cells and debris were cleared by centrifugation at 9000g, inverted vesicles were collected by centrifugation at 193,000g, resuspended in TMG buffer, and stored at −80 °C. Protein concentrations were determined using a modified Lowry assay.[25]
Continuous ATP synthesis activity of inverted membrane vesicles was measured using a luciferin/luciferase luminescence assay as previously described.[22] Inhibition of ATP synthesis activity by test compounds was determined using an end point assay essentially as previously described.[18],[26] In this assay, the synthesis reaction was initiated by 2.5 mM NADH, proceeded for 10 min, and was stopped with 1% trichloroacetic acid, 2 mM CCCP, and 10 mM EDTA. Samples from each reaction were diluted 500-fold prior to the addition of luciferase since quinoline compounds are known to inhibit luciferase.[27] This dilution was sufficient to minimize inhibition of luciferase (Figure S4). Each replicate set included a positive control containing DMSO with no compound and a negative control containing carbonyl cyanide m-chlorophenyl hydrazone. Luminescence values were corrected for the background by subtracting the negative control and then normalized to the positive control within the same replicate. Dose–response curves were fit using eq 1, where activity is the relative ATP synthesis activity, [I] is the concentration of inhibitor in μg/mL, and n is the Hill coefficient. [drawing 1] 1

As a reminder, the MIC is the smallest concentration in the dilution series that meets the test's criterion for growth inhibition. The IC50 is the midpoint of a concentration-inhibition curve. For the compound `CSc1nc2ccccc2cc1CNCc1ccc(CN(C)C)cc1` [Compound 4, N,N-Dimethyl-1-(4-((((2-(methylthio)quinolin-3-yl)methyl)amino)methyl)phenyl)methanamine], in assay [1], the MIC was 256 µg/mL and the “antibacterial activity in words, BAA 2109” value is on record as “able to inhibit”. Besides, in assay [2], the MIC was above 256 µg/mL and the “antibacterial activity in words, PA 9027” value was “inactive”. Besides, in assay [3], the “inhibition of PA ETC-driven H+ pumping, in words” value is “some inhibition” and the “Inhibition of the PA electron transport chain IC50” value is 29 µg/mL. Besides, in assay [4], the “Antibacterial activity screening result, P∆6” value was “I”; the “antibacterial activity (MIC) PΔ6” value lay in the range of 64 to 128 µg/mL; the “antibacterial activity in words, PΔ6” value was “weakly inhibit”. In the assay on E. coli (ATCC 25922), the MIC amounted to 256 µg/mL and the “antibacterial activity in words, EC 25922” value is listed as “weakly inhibit”. In assay [5], the IC50 is 86.2 µM and 85.3 µM; the “Hill coefficient of dose response fit, DK8/pASH20 vesicles” value was found to be 1.0.
`CN(C)Cc1ccc(CNCc2cc3ccccc3nc2SCc2ccccc2)cc1` [Compound 5, 1-(4-((((2-(Benzylthio)quinolin-3-yl)methyl)amino)methyl)phenyl)-N,N-dimethylmethanamine]: in assay [1], the MIC is above 128 µg/mL and the “antibacterial activity in words, BAA 2109” value was “inactive”. In assay [2], the minimum inhibitory concentration (MIC) is above 128 µg/mL and the “antibacterial activity in words, PA 9027” value is “inactive”. In addition, in assay [3], the “inhibition of PA ETC-driven H+ pumping, in words” value was “some inhibition” and the “Inhibition of the PA electron transport chain IC50” value was found to be 27 µg/mL. Also, in assay [4], the “Antibacterial activity screening result, P∆6” value is given as “I”; the “antibacterial activity (MIC) PΔ6” value turned out to be 16 µg/mL; the “antibacterial activity in words, PΔ6” value was “more potent”. In addition, in the assay on E. coli (ATCC 25922), the MIC was determined as 64 µg/mL and the “antibacterial activity in words, EC 25922” value is “more potent”. Further, the “Antibacterial activity screening result, EC 25922” value in the assay with E. coli (ATCC 25922) (at 128 µg/mL in DMSO) is “I”. Moreover, in assay [5], the IC50 was 5.38 µM and the “Hill coefficient of dose response fit, DK8/pASH20 vesicles” value was 1.3.
